Data from patent US20250346606A1, “CAMPTOTHECIN COMPOUND, PREPARATION METHOD THEREFOR, AND APPLICATION THEREOF” (SICHUAN KELUN-BIOTECH BIOPHARMACEUTICAL CO., LTD., priority 2021, published 2025).
pIC50: −log10 of the molar value.

Columns and labels:
Format in all cases: cell-based, Human
HCC70 cells = assay: Inhibitory effect of compounds on HCC70 cell proliferation; details: Homo sapiens, HCC70, 72 h, read-out: IC50, inhibitory activity on HCC70 cell proliferation
Description: (1) Cell plating: First, tumor cells HCC70 were cultured in corresponding medium, then digested with trypsin, centrifuged, resuspended, and counted, and the cells were adjusted to an appropriate concentration for plating.
(§1) Co-incubation of the compound of the present disclosure and tumor cells: after the cells adhered to the wall, the medium was removed, and the diluted bioactive molecule (the compound of the present disclosure) was added to the wells of the above plate, and incubated for 72 h.
(§2) In vitro cell viability detection: After the incubation, 50 μL of Cell Counting-Lite™ 2.0 reagent (Vazyme/Novazyme) was added to each well, shaken and mixed well in the dark, reacted for 10 minutes, and then the detection was carried out with a microplate reader (manufacturer: BMG, Model: PHERAStar-FS) for reading. The background RLU was obtained by using cell-free medium (with Cell Counting-Lite™), and the vehicle RLU was obtained by using cell-containing medium (with Cell Counting-Lite™). Cell inhibition rate=1−(sample RLU−background RLU)/(solvent RLU−background RLU)×100%. According to the four-parameter model fitting curve, the half maximal inhibitory concentration (IC50) of the compound was calculated, and the detection results were shown in Table 16.

NCI-N87 cells = assay: Inhibitory effect of compounds on NCI-N87 cell proliferation; details: Homo sapiens, NCI-N87, 72 h, read-out: IC50, inhibitory activity on NCI-N87 cell proliferation, NCI-N87 human gastric cancer cells, 72 h incubation, Cell Counting-Lite 2.0
Outline: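 Adherent NCI-N87 cells were exposed to compound dilutions for 72 h. Viability measured by Cell Counting-Lite 2.0 luminescence, with inhibition calculated against vehicle and cell-free background RLU. IC50 from four-parameter fit.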

Hela cells = assay: Inhibitory effect of compounds on Hela cell proliferation; details: Homo sapiens, HeLa, 72 h, read-out: IC50, inhibitory activity on Hela cell proliferation
Description: (1) Cell plating: First, tumor cells Hela were cultured in corresponding medium, then digested with trypsin, centrifuged, resuspended, and counted, and the cells were adjusted to an appropriate concentration for plating.
as §1
as §2, with “14.” for “16.”

A549 cells = assay: Inhibitory effect of compounds on A549 cell proliferation; details: Homo sapiens, A549, 72 h, read-out: IC50, inhibitory activity on A549 cell proliferation
Description: (1) Cell plating: First, tumor cells A549 were cultured in the corresponding medium, then digested with trypsin, centrifuged and resuspended, and counted, and the cells were adjusted to an appropriate concentration for plating.
as §1
as §2, with “activity” for “viability”, “4.” for “16.”

HT29 cells = assay: Inhibitory effect of compounds on HT29 cell proliferation; details: Homo sapiens, HT-29, 72 h, read-out: IC50, inhibitory activity on HT29 cell proliferation
Outline: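 Adherent HT29 cells incubated with diluted compounds for 72 h; viability read by luminescence (Cell Counting-Lite 2.0, 10 min). Inhibition calculated against cell-free background and vehicle-treated cells; IC50 from four-parameter curve fit.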

NCI-H358 cells = assay: Inhibitory effect of compounds on NCI-H358 cell proliferation; details: Homo sapiens, NCI-H358, 72 h, read-out: IC50, inhibitory activity on NCI-H358 cell proliferation, NCI-H358 human non-small cell lung cancer cells, 72 h incubation, Cell Counting-Lite 2.0
Outline: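 Adherent NCI-H358 cells were exposed to compound for 72 h, then viability was read by luminescence (Cell Counting-Lite 2.0). Inhibition calculated from RLU relative to cell-free background and vehicle wells; IC50 from a four-parameter fit.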

SKOV-3 cells = assay: Inhibitory effect of compounds on SKOV-3 cell proliferation; details: Homo sapiens, SK-OV-3, 72 h, read-out: IC50, inhibitory activity on SKOV-3 cell proliferation
Description: (1) Cell plating: First, tumor cells SKOV-3 were cultured in corresponding medium, then digested with trypsin, centrifuged, resuspended, and counted, and the cells were adjusted to an appropriate concentration for plating.
as §1
as §2, with “8.” for “16.”

CC[C@@]1(O)C(=O)OCc2c1cc1n(c2=O)Cc2c-1nc1cc(Cl)c(C)c3c1c2[C@@H](NC(=O)C1(O)CC1)CC3 [Example 7 (2-20-A), N-((1S,9S)-5-chloro-9-ethyl-9-hydroxy-4-methyl-10,13-dioxo-2,3,9,10,13,15-hexahydro-1H,12H-benzo[de]pyrano[3′,4′:6,7]indolizino[1,2-b]quinolin-1-yl)-1-hydroxycyclopropane-1-carboxamide]
pIC50 (HCC70 cells): 6.98 | pIC50 (NCI-N87 cells): 8.34 | pIC50 (Hela cells): 7.95 | pIC50 (A549 cells): 8.09 | pIC50 (HT29 cells): 8.89 | pIC50 (NCI-H358 cells): 7.73 | pIC50 (SKOV-3 cells): 8.17
